Data taken from patent US9611267B2, “Substituted tricyclic compounds as FGFR inhibitors” (Incyte Corporation, priority 2012, dated 2017).

Legend:
Assay type in all cases: biochemical
FGFR1 = FGFR1 (Homo sapiens (Human), UniProt P11362); assay: FGFR enzymatic assay (FRET peptide phosphorylation), FGFR1; details: FGFR1 enzyme 0.02 nM, ATP 210 μM
Method in brief: (§1)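 IC50 values were obtained from variable-slope sigmoidal dose-response fitting of a FRET read-out of peptide phosphorylation. The buffer, described for FGFR3, was 50 mM HEPES pH 7.5 with MgCl2, EGTA, Tween-20 and DTT.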

FGFR3 = FGFR3 (Homo sapiens (Human), UniProt P22607); assay: FGFR enzymatic assay (FRET peptide phosphorylation), FGFR3; details: FGFR3 enzyme (Millipore), ATP 140 μM
Method in brief: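 After 5-10 min pre-incubation of FGFR3 with serially diluted compound in pH 7.5 HEPES/MgCl2/EGTA/DTT buffer, the reaction proceeded 1 hr at 25° C. Phosphorylated peptide was detected by FRET, and IC50 was fitted with a variable-slope sigmoid.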

FGFR2 = FGFR2 (Homo sapiens (Human), UniProt P21802); assay: FGFR enzymatic assay (FRET peptide phosphorylation), FGFR2; details: FGFR2 enzyme 0.01 nM, ATP 100 μM
Method in brief: as §1

Measured: IC50

FGFR1, sequence (P11362 22-822): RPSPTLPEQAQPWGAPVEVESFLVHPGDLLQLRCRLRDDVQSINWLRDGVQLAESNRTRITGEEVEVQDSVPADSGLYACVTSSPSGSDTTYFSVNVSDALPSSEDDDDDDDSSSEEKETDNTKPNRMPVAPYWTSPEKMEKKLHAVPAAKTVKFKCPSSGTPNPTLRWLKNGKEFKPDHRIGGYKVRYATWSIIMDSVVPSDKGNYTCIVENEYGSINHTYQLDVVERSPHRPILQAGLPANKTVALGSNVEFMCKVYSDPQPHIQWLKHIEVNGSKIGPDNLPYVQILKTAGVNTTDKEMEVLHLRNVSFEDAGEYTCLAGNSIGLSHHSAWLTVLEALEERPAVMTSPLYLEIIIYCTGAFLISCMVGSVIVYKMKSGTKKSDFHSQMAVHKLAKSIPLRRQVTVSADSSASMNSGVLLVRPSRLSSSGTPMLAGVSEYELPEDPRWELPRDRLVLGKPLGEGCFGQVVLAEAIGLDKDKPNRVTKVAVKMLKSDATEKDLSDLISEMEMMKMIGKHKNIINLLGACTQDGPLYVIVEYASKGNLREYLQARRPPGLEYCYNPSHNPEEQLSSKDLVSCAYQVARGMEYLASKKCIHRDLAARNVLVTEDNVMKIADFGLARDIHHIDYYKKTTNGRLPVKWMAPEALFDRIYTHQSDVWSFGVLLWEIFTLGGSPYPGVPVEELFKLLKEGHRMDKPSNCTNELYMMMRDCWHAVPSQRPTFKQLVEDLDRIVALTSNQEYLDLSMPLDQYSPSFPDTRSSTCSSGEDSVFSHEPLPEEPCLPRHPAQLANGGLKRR
FGFR3, sequence (P22607 23-806): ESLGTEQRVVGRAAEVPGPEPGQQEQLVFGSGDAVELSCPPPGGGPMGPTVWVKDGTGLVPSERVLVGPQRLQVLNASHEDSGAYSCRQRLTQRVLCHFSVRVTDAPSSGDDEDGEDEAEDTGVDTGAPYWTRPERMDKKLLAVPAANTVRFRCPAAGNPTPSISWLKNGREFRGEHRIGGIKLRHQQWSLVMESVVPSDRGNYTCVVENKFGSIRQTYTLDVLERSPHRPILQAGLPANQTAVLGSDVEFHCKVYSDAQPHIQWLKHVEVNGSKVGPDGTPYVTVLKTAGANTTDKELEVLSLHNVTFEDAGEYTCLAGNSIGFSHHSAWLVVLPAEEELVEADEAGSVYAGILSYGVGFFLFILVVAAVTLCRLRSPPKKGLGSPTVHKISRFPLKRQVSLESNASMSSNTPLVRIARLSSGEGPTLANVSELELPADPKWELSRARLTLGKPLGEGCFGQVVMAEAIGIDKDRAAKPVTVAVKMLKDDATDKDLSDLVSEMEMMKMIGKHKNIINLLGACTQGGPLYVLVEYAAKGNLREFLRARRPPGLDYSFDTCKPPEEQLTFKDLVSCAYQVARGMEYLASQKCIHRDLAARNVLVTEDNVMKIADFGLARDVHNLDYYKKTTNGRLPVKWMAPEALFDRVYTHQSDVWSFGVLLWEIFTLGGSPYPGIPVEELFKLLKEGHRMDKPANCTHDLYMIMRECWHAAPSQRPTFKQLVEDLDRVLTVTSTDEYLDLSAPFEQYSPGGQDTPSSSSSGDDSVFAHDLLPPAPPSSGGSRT
FGFR2, sequence (P21802 22-821): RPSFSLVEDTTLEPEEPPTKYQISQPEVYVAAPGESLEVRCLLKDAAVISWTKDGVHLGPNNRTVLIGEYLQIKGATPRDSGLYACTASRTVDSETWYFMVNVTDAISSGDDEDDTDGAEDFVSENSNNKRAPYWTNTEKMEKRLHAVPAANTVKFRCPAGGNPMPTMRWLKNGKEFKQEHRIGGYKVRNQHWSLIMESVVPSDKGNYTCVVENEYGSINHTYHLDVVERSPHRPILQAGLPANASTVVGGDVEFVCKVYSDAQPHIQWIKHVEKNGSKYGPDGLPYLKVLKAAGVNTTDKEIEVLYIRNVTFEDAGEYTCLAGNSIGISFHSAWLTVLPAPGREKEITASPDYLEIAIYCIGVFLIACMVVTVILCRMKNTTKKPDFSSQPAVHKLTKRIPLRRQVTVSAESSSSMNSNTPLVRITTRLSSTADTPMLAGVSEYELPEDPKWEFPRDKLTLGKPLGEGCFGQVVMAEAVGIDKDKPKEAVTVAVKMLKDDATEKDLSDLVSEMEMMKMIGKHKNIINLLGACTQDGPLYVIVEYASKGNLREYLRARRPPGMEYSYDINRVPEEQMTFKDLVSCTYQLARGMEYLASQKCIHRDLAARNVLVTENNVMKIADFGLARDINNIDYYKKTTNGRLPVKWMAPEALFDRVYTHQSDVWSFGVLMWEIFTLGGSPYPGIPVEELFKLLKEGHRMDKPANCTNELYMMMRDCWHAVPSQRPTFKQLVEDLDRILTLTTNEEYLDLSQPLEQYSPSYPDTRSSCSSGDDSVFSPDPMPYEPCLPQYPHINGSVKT

CCN1C(=O)N(c2c(F)c(OC)cc(OC)c2F)Cc2cnc3[nH]c(Cn4ccccc4=O)cc3c21 [Example 219, 3-(2,6-difluoro-3,5-dimethoxyphenyl)-1-ethyl-8-[(2-oxopyridin-1(2H)-yl)methyl]-1,3,4,7-tetrahydro-2H-pyrrolo[3′,2′:5,6]pyrido[4,3-d]pyrimidin-2-one]
< 100 nM: all assays above

CCN1C(=O)N(c2c(F)c(OC)cc(OC)c2F)Cc2cnc3[nH]c(COc4cccnc4)cc3c21 [Example 220, 3-(2,6-difluoro-3,5-dimethoxyphenyl)-1-ethyl-8-[(pyridin-3-yloxy)methyl]-1,3,4,7-tetrahydro-2H-pyrrolo[3′,2′:5,6]pyrido[4,3-d]pyrimidin-2-one]
< 100 nM: all assays above

COc1cc(OC)c(F)c(N2Cc3cnc4[nH]c(CN5CCOCC5)cc4c3N(CCO)C2=O)c1F [Example 221, 3-(2,6-difluoro-3,5-dimethoxyphenyl)-1-(2-hydroxyethyl)-8-(morpholin-4-ylmethyl)-1,3,4,7-tetrahydro-2H-pyrrolo[3′,2′:5,6]pyrido[4,3-d]pyrimidin-2-one]
< 100 nM: all assays above

COc1cc(OC)c(F)c(N2Cc3cnc4[nH]c(CCN5CCOCC5)cc4c3N(c3cccc(F)c3F)C2=O)c1F [Example 222, 3-(2,6-difluoro-3,5-dimethoxyphenyl)-1-(2,3-difluorophenyl)-8-(2-morpholin-4-ylethyl)-1,3,4,7-tetrahydro-2H-pyrrolo[3′,2′:5,6]pyrido[4,3-d]pyrimidin-2-one]
< 100 nM: all assays above

COc1cc(OC)c(F)c(N2Cc3cnc4[nH]c(CCN5CCN(C)CC5)cc4c3N(c3cccc(F)c3F)C2=O)c1F [Example 223, 3-(2,6-difluoro-3,5-dimethoxyphenyl)-1-(2,3-difluorophenyl)-8-[2-(4-methylpiperazin-1-yl)ethyl]-1,3,4,7-tetrahydro-2H-pyrrolo[3′,2′:5,6]pyrido[4,3-d]pyrimidin-2-one]
< 100 nM: all assays above

CCN1CCN(CCc2cc3c4c(cnc3[nH]2)CN(c2c(F)c(OC)cc(OC)c2F)C(=O)N4c2cccc(F)c2F)CC1 [Example 224, 3-(2,6-difluoro-3,5-dimethoxyphenyl)-1-(2,3-difluorophenyl)-8-[2-(4-ethylpiperazin-1-yl)ethyl]-1,3,4,7-tetrahydro-2H-pyrrolo[3′,2′:5,6]pyrido[4,3-d]pyrimidin-2-one]
< 100 nM: all assays above

COc1cc(OC)c(F)c(N2Cc3cnc4[nH]c(CCN5CCOCC5)cc4c3N(c3ccc(F)cc3)C2=O)c1F [Example 225, 3-(2,6-difluoro-3,5-dimethoxyphenyl)-1-(4-fluorophenyl)-8-(2-morpholin-4-ylethyl)-1,3,4,7-tetrahydro-2H-pyrrolo[3′,2′:5,6]pyrido[4,3-d]pyrimidin-2-one]
< 100 nM: all assays above

COc1cc(OC)c(F)c(N2Cc3cnc4[nH]c(CCN5CCN(C)CC5)cc4c3N(c3ccc(F)cc3)C2=O)c1F [Example 226, 3-(2,6-difluoro-3,5-dimethoxyphenyl)-1-(4-fluorophenyl)-8-[2-(4-methylpiperazin-1-yl)ethyl]-1,3,4,7-tetrahydro-2H-pyrrolo[3′,2′:5,6]pyrido[4,3-d]pyrimidin-2-one]
< 100 nM: all assays above

COc1cc(OC)c(F)c(N2Cc3cnc4[nH]c(CCN5CCOCC5)cc4c3N(c3cccc(F)c3)C2=O)c1F [Example 227, 3-(2,6-difluoro-3,5-dimethoxyphenyl)-1-(3-fluorophenyl)-8-(2-morpholin-4-ylethyl)-1,3,4,7-tetrahydro-2H-pyrrolo[3′,2′:5,6]pyrido[4,3-d]pyrimidin-2-one]
< 100 nM: all assays above

COc1cc(OC)c(F)c(N2Cc3cnc4[nH]c(CCN5CCN(C)CC5)cc4c3N(c3cccc(F)c3)C2=O)c1F [Example 228, 3-(2,6-difluoro-3,5-dimethoxyphenyl)-1-(3-fluorophenyl)-8-[2-(4-methylpiperazin-1-yl)ethyl]-1,3,4,7-tetrahydro-2H-pyrrolo[3′,2′:5,6]pyrido[4,3-d]pyrimidin-2-one]
< 100 nM: all assays above

CCN1CCN(CCc2cc3c4c(cnc3[nH]2)CN(c2c(F)c(OC)cc(OC)c2F)C(=O)N4c2cccc(F)c2)CC1 [Example 229, 3-(2,6-difluoro-3,5-dimethoxyphenyl)-1-(3-fluorophenyl)-8-[2-(4-ethylpiperazin-1-yl)ethyl]-1,3,4,7-tetrahydro-2H-pyrrolo[3′,2′:5,6]pyrido[4,3-d]pyrimidin-2-one]
< 100 nM: all assays above

CCN1C(=O)N(c2c(F)c(OC)cc(OC)c2F)Cc2cnc3[nH]c(CCN4CC(C#N)C4)cc3c21 [Example 230, 1-{2-[3-(2,6-difluoro-3,5-dimethoxyphenyl)-1-ethyl-2-oxo-2,3,4,7-tetrahydro-1H-pyrrolo[3′,2′:5,6]pyrido[4,3-d]pyrimidin-8-yl]ethyl}azetidine-3-carbonitrile]
< 100 nM: all assays above

CCN1C(=O)N(c2c(F)c(OC)cc(OC)c2F)Cc2cnc3[nH]c(CCN4CC(F)C4)cc3c21 [Example 231, 3-(2,6-difluoro-3,5-dimethoxyphenyl)-1-ethyl-8-[2-(3-fluoroazetidin-1-yl)ethyl]-1,3,4,7-tetrahydro-2H-pyrrolo[3′,2′:5,6]pyrido[4,3-d]pyrimidin-2-one]
< 100 nM: all assays above

COc1cc(OC)c(F)c(N2Cc3cnc4[nH]c(CN5CCOCC5)cc4c3N(CCF)C2=O)c1F [Example 232, 3-(2,6-difluoro-3,5-dimethoxyphenyl)-1-(2-fluoroethyl)-8-(morpholin-4-ylmethyl)-1,3,4,7-tetrahydro-2H-pyrrolo[3′,2′:5,6]pyrido[4,3-d]pyrimidin-2-one]
< 100 nM: all assays above

COc1cc(OC)c(F)c(N2Cc3cnc4[nH]c(CN5CCN(C)CC5)cc4c3N(CCF)C2=O)c1F [Example 233, 3-(2,6-difluoro-3,5-dimethoxyphenyl)-1-(2-fluoroethyl)-8-[(4-methylpiperazin-1-yl)methyl]-1,3,4,7-tetrahydro-2H-pyrrolo[3′,2′:5,6]pyrido[4,3-d]pyrimidin-2-one]
< 100 nM: all assays above
